Earlier results as cited in patent US20250325531A1, “TREATMENT OF SYSTOLIC DYSFUNCTION” (MyoKardia, Inc., priority 2024, published 2025).

Tested on: healthy volunteers / HFrEF
Details: high doses; correlated with increase in SET; cited from earlier work

For COC(=O)N1CCN(Cc2cccc(NC(=O)Nc3ccc(C)nc3)c2F)CC1 [omecamtiv mecarbil], the “ischemia in healthy volunteers” value is given as “resulted in ischemia”.
